Laboratory results published in US20240343733A1, “COMPOUNDS FOR TARGETING DEGRADATION OF IRAK4 PROTEINS” (BIOGEN MA INC., priority 2021, published 2024).

Assays:
IKZF1 = molecular target: T1, IKZF1 (Homo sapiens, UniProt Q13422); experiment: IKZF1 Degradation Assay, HiBiT Method; format: cell-based; conditions: for DC50: NCIH929 cells expressing HiBiT-tagged IKZF1, 6 hours, top concentration 10 μM
T1 construct: endogenously expressing IKZF1 with HiBiT fusion tag via CRISPR
Experimental: Assay 2. IKZF1 Degradation Assay, HiBiT Method
Selected compounds of this disclosure were tested in an IKZF1 degradation assay using the HiBiT Method.
RPMI no-phenol red medium and fetal bovine serum (FBS) were purchased from Gibco (Grand Island, NY, USA). Nano-Glo® HiBiT Lytic Assay System was purchased from Promega (Madison, WI, USA). […] Cell culture flasks and 384-well microplates were acquired from VWR (Radnor, PA, USA).
IKZF1 degradation was determined based on quantification of luminescent signal using Nano-Glo® HiBiT Lytic Assay kit. […] NCIH929 cells expressing HiBiT-tagged IKZF1 were added into 384-well plates in RPMI medium containing 10% FBS and 0.05 mM 2-mercaptoethanol at a cell density of 15000 cells per well. The plates were kept at 37° C. with 5% CO2 for 6 hours. Cells treated in the absence of the test compound were the negative control and wells containing media only were the positive control. After 6-hour incubation, Nano-Glo® HiBiT Lytic Assay reagents were added to the designated wells. Luminescence was acquired on EnVision® Multilabel Reader (PerkinElmer, Santa Clara, CA, USA).

IRAK4 = molecular target: T2, IRAK4 (Homo sapiens, UniProt Q9NWZ3); experiment: IRAK4 Degradation Assay, HiBiT Method; format: cell-based; conditions: 293T cells expressing HiBiT-tagged IRAK4, 6 hours
T2 construct: 293Tcells expressing HiBiT-tagged IRAK4 were then added into 384-well plates
T2 sequence (Q9NWZ3 1-460): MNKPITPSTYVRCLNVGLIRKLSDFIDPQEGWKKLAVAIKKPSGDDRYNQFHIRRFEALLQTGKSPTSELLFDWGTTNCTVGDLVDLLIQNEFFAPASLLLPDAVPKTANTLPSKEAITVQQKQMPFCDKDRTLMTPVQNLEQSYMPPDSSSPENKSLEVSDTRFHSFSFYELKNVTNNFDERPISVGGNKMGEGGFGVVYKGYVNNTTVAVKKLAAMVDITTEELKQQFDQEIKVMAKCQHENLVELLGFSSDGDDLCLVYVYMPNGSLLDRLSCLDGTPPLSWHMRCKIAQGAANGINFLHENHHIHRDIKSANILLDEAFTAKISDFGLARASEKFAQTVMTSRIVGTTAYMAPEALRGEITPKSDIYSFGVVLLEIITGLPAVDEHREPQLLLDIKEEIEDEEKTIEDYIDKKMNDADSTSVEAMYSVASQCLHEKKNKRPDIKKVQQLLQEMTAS
Procedure, shortened: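 293T cells with HiBiT knocked in at the C-terminus of endogenous IRAK4, 10,000 per well, treated 6 h at 37 °C with an 11-point half-log series ([…]), in duplicate. Remaining IRAK4 read by Nano-Glo HiBiT lytic luminescence against DMSO-only and media-only controls.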

T1 sequence (Q96SW2 whole entry partner, the tested form may be a part): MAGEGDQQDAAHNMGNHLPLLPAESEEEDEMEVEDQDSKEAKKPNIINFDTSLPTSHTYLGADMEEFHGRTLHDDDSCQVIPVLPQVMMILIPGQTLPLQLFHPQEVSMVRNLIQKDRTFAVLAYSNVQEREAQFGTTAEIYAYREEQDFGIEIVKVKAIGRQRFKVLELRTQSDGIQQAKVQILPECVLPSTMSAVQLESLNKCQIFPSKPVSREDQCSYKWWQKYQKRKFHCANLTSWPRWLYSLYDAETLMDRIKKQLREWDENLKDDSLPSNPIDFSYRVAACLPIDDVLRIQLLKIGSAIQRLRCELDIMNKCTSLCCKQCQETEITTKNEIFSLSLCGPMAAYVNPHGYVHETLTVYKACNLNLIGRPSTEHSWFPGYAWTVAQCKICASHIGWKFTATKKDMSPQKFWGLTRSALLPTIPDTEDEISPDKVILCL
T1 sequence (Q16531 whole entry partner, the tested form may be a part): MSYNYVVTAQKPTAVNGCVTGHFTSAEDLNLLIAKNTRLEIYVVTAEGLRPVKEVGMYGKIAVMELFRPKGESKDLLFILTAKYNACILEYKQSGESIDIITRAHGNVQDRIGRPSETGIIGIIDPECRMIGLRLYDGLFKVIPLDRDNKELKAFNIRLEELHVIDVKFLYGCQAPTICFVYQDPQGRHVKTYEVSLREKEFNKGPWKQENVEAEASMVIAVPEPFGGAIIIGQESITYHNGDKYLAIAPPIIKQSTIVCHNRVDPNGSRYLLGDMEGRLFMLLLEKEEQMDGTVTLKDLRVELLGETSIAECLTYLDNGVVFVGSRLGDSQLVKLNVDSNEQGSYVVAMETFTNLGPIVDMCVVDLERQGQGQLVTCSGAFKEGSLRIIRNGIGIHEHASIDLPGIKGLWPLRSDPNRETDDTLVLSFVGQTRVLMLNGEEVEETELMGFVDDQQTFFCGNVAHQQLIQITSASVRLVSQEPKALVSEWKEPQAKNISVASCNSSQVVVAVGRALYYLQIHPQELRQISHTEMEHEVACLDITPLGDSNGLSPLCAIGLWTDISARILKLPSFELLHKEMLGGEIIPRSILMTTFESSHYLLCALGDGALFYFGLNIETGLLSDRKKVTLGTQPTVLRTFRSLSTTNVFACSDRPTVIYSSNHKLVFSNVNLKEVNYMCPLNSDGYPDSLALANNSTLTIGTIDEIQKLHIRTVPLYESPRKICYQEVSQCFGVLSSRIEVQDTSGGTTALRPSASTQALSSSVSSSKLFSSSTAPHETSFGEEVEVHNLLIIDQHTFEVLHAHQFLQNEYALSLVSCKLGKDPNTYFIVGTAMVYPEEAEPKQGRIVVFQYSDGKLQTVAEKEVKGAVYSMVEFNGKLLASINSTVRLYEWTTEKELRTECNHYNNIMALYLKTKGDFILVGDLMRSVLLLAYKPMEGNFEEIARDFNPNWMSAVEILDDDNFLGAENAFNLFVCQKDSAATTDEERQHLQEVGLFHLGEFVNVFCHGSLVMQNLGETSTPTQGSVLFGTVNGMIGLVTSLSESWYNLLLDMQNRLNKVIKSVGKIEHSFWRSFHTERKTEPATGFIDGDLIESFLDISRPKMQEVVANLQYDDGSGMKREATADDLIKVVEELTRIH
T1 sequence (Q13422 whole entry, the tested form may be a part): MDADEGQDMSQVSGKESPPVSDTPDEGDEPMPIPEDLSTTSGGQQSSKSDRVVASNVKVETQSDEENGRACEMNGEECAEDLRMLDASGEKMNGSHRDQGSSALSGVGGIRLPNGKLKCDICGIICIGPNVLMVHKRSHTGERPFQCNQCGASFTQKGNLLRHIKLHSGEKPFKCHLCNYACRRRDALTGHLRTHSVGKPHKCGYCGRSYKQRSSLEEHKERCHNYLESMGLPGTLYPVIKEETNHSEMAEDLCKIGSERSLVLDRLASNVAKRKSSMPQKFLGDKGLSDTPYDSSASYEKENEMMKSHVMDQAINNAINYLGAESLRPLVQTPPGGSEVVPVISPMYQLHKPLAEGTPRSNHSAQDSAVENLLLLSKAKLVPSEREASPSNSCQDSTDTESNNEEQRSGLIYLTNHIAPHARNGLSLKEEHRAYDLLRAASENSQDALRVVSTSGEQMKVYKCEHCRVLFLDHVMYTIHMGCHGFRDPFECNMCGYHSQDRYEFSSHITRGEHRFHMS

| DC50 (IKZF1) [µM] | DC50 (IRAK4) [nM] | degradation of IKZF1 (IKZF1; NCIH929.11 cells, 6 hours) [%] | SMILES |
| --- | --- | --- | --- |
| > 10 | 10 to 100 |  | CC(C)Oc1cc2nc(C3CCN(C(=O)CC4CCN(c5ncc(NC6CCC(=O)NC6=O)cc5F)CC4)CC3)cn2cc1C(=O)Nc1cccc(C(F)F)n1 (centres unmarked) [Example 81, N-[6-(difluoromethyl)-2-pyridyl]-2-[1-[2-[1-[5-[(2,6-dioxo-3-piperidyl)amino]-3-fluoro-2-pyridyl]-4-piperidyl]acetyl]-4-piperidyl]-7-isopropoxy-imidazo[1,2-a]pyridine-6-carboxamide] |
| > 10 | < 10 |  | CC(C)Oc1cc2nc(C3CCN(C(=O)CC4(O)CCN(c5ccc(NC6CCC(=O)NC6=O)cc5F)CC4)CC3)cn2cc1C(=O)Nc1cccc(C(F)F)n1 (centres unmarked) [Example 69, N-[6-(difluoromethyl)-2-pyridyl]-2-[1-[2-[1-[4-[(2,6-dioxo-3-piperidyl)amino]-2-fluoro-phenyl]-4-hydroxy-4-piperidyl]acetyl]-4-piperidyl]-7-isopropoxy-imidazo[1,2-a]pyridine-6-carboxamide] |
| > 10 | 10 to 100 |  | CC(C)Oc1cc2nn(C3CCN(C(=O)CC4(O)CCN(c5cnc6c(c5)n(C)c(=O)n6C5CCC(=O)NC5=O)CC4)CC3)cc2cc1C(=O)Nc1cccn([C@H]2C[C@H]2F)c1=O (stereo partly drawn) [Example 153, 2-(1-(2-(1-(3-(2,6-dioxopiperidin-3-yl)-1-methyl-2-oxo-2,3-dihydro-1H-imidazo[4,5-b]pyridin-6-yl)-4-hydroxypiperidin-4-yl)acetyl)piperidin-4-yl)-N-(1-((1S,2R)-2-fluorocyclopropyl)-2-oxo-1,2-dihydropyridin-3-yl)-6-isopropoxy-2H-indazole-5-carboxamide] |
| > 10 | 10 to 100 |  | CC(C)Oc1cc2nc(C3CCN(CC(=O)N4CCC(c5ccc(NC6CCC(=O)NC6=O)cc5)CC4)CC3)cn2cc1C(=O)Nc1ccn(C)n1 (centres unmarked) [Example 108, 2-[1-[2-[4-[4-[(2,6-dioxo-3-piperidyl)amino]phenyl]-1-piperidyl]-2-oxo-ethyl]-4-piperidyl]-7-isopropoxy-N-(1-methylpyrazol-3-yl)imidazo[1,2-a]pyridine-6-carboxamide] |
| > 10 | < 10 |  | CC(C)Oc1cc2nc([C@H]3CC[C@H](CN4CCC(c5ccc6c(c5)n(C)c(=O)n6C5CCC(=O)NC5=O)C(F)(F)C4)CC3)cn2cc1C(=O)Nc1cnn2cccnc12 (some centres unmarked) [Example 49, 2-[4-[[4-[1-(2,6-dioxo-3-piperidyl)-3-methyl-2-oxo-benzimidazol-5-yl]-3,3-difluoro-1-piperidyl]methyl]cyclohexyl]-7-isopropoxy-N-pyrazolo[1,5-a]pyrimidin-3-yl-imidazo[1,2-a]pyridine-6-carboxamide] |
| > 10 | < 10 |  | CC(C)Oc1cc2nc(C3CCN(C(=O)CC4(O)CCN(c5ccc(NC6CCC(=O)NC6=O)cc5Cl)CC4)CC3)cn2cc1C(=O)Nc1cccc(C(F)F)n1 (centres unmarked) [Example 73, 2-[1-[2-[1-[2-chloro-4-[(2,6-dioxo-3-piperidyl)amino]phenyl]-4-hydroxy-4-piperidyl]acetyl]-4-piperidyl]-N-[6-(difluoromethyl)-2-pyridyl]-7-isopropoxy-imidazo[1,2-a]pyridine-6-carboxamide] |
| > 10 | < 10 |  | CC(C)Oc1cc2nc(C3CCC(CN4CCC(c5ccc(C6CCC(=O)NC6=O)cc5F)CC4)CC3)cn2cc1C(=O)Nc1cnn2cccnc12 (centres unmarked) [Example 47, 2-[4-[[4-[4-(2,6-dioxo-3-piperidyl)-2-fluoro-phenyl]-1-piperidyl]methyl]cyclohexyl]-7-isopropoxy-N-pyrazolo[1,5-a]pyrimidin-3-yl-imidazo[1,2-a]pyridine-6-carboxamide] |
| > 10 | 10 to 100 |  | CC(C)Oc1cc2nc(C3CCN(C(=O)CC4(O)CCN(c5ccc(NC6CCC(=O)NC6=O)cc5)CC4)CC3)cn2cc1C(=O)Nc1cccc(C(F)F)n1 (centres unmarked) [Example 71, N-[6-(difluoromethyl)-2-pyridyl]-2-[1-[2-[1-[4-[(2,6-dioxo-3-piperidyl)amino]phenyl]-4-hydroxy-4-piperidyl]acetyl]-4-piperidyl]-7-isopropoxy-imidazo[1,2-a]pyridine-6-carboxamide] |
| > 10 | < 10 |  | CC(C)Oc1cc2nc([C@H]3CC[C@H](CN4CCC(c5ccc(OC6CCC(=O)NC6=O)cc5)CC4)CC3)cn2cc1C(=O)Nc1cnn2cccnc12 (some centres unmarked) [Example 50, 2-[4-[[4-[4-[(2,6-dioxo-3-piperidyl)oxy]phenyl]-1-piperidyl]methyl]cyclohexyl]-7-isopropoxy-N-pyrazolo[1,5-a]pyrimidin-3-yl-imidazo[1,2-a]pyridine-6-carboxamide] |
|  |  | 90 | Nc1cccc2c1C(=O)N(C1CCC(=O)NC1=O)C2=O (centres unmarked) [pomalidomide, reference compound] |
|  | 10 to 100 |  | CC(C)Oc1cc2nn([C@H]3CC[C@H](CN4CCOC[C@H]4Cc4ccc(OC5CCC(=O)NC5=O)cc4)CC3)cc2cc1C(=O)Nc1cccn(C2CC2)c1=O (stereo partly drawn) [Example 127, N-(1-cyclopropyl-2-oxo-1,2-dihydropyridin-3-yl)-2-((S,4r)-4-(((3S)-3-(4-((2,6-dioxopiperidin-3-yl)oxy)benzyl)morpholino)methyl)cyclohexyl)-6-isopropoxy-2H-indazole-5-carboxamide] |
|  | 10 to 100 |  | CC(C)Oc1cc2nn(C3CCN(C(=O)OC4CCN(c5ncc(C6CCC(=O)NC6=O)cc5F)CC4)CC3)cc2cc1C(=O)Nc1cccn([C@H]2C[C@H]2F)c1=O (stereo partly drawn) [Example 156, 1-(5-(2,6-dioxopiperidin-3-yl)-3-fluoropyridin-2-yl)piperidin-4-yl 4-(5-((1-((1S,2R)-2-fluorocyclopropyl)-2-oxo-1,2-dihydropyridin-3-yl)carbamoyl)-6-isopropoxy-2H-indazol-2-yl)piperidine-1-carboxylate] |
|  | < 10 |  | CC(C)Oc1cc2nc([C@H]3CC[C@H](C(=O)NC4CCN(c5ccc(C6CCC(=O)NC6=O)cn5)CC4)CC3)cn2cc1C(=O)Nc1cnn2cccnc12 (some centres unmarked) [Example 182, 2-((1r,4r)-4-((1-(5-(2,6-dioxopiperidin-3-yl)pyridin-2-yl)piperidin-4-yl)carbamoyl)cyclohexyl)-7-isopropoxy-N-(pyrazolo[1,5-a]pyrimidin-3-yl)imidazo[,2-a]pyridine-6-carboxamide] |
|  | < 10 |  | CC(C)Oc1cc2nn(C3CCN(C(=O)NC4CCN(c5ncc(C6CCC(=O)NC6=O)cc5F)CC4)CC3)cc2cc1C(=O)Nc1cccn([C@H]2C[C@H]2F)c1=O (stereo partly drawn) [Example 154, 2-(1-((1-(5-(2,6-dioxopiperidin-3-yl)-3-fluoropyridin-2-yl)piperidin-4-yl)carbamoyl)piperidin-4-yl)-N-(1-((1S,2R)-2-fluorocyclopropyl)-2-oxo-1,2-dihydropyridin-3-yl)-6-isopropoxy-2H-indazole-5-carboxamide] |
|  | 10 to 100 |  | CC(C)Oc1cc2nc(C3CCN(CC(=O)N4CCC(c5ccc(NC6CCC(=O)NC6=O)cc5)CC4)CC3)cn2cc1C(=O)Nc1ccccn1 (centres unmarked) [Example 109, 2-[1-[2-[4-[4-[(2,6-dioxo-3-piperidyl)amino]phenyl]-1-piperidyl]-2-oxo-ethyl]-4-piperidyl]-7-isopropoxy-N-(2-pyridyl)imidazo[1,2-a]pyridine-6-carboxamide] |
|  | < 10 |  | CC(C)Oc1cc2nn([C@H]3CC[C@H](CN4CC[C@@H](c5ncc(NC6CCC(=O)NC6=O)cc5F)[C@H](O)C4)CC3)cc2cc1C(=O)Nc1cccn([C@H]2C[C@H]2F)c1=O (stereo partly drawn) [Example 136, 2-((1S,4S)-4-(((3S,4S)-4-(5-((2,6-dioxopiperidin-3-yl)amino)-3-fluoropyridin-2-yl)-3-hydroxypiperidin-1-yl)methyl)cyclohexyl)-N-(1-((1S,2R)-2-fluorocyclopropyl)-2-oxo-1,2-dihydropyridin-3-yl)-6-isopropoxy-2H-indazole-5-carboxamide] |
|  | 10 to 100 |  | CC(C)Oc1cc2nc([C@H]3CC[C@H](CN(C)C4CCN(Cc5ccc6c(c5)n(C)c(=O)n6C5CCC(=O)NC5=O)CC4)CC3)cn2cc1C(=O)Nc1cccc(C(F)F)n1 (some centres unmarked) [Example 43, N-[6-(difluoromethyl)-2-pyridyl]-2-[4-[[[1-[[1-(2,6-dioxo-3-piperidyl)-3-methyl-2-oxo-benzimidazol-5-yl]methyl]-4-piperidyl]-methyl-amino]methyl]cyclohexyl]-7-isopropoxy-imidazo[1,2-a]pyridine-6-carboxamide] |
